Experiments:
[1] = system: lambsquarter (Chenopodium album); experiment: Postemergence herbicidal activity; type: in vivo; details: post-emergent, 140 g ai/ha, after 14 days; for pest or weed control at 140 g/ha: Chenopodium album, post-emergence, 336 h, read-out: % Control CHEAL
Procedure, shortened: (§1)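 Compounds were applied postemergence by track sprayer delivering 187 L/ha, using a mixed organic/aqueous carrier containing crop oil concentrate and surfactant; solvent-blank sprays served as controls. Test plants were at the first to second true leaf stage after 7-21 days' greenhouse growth, were sub-irrigated after treatment, and were evaluated by probit analysis.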

[2] = system: redroot pigweed (Amaranthus retroflexus); experiment: Postemergence herbicidal activity; type: in vivo; details: post-emergent, 140 g ai/ha, after 14 days; for pest or weed control at 140 g/ha: Amaranthus retroflexus, post-emergence, 336 h, read-out: % Control AMARE
Procedure, shortened: as §1

[3] = system: velvetleaf (Abutilon theophrasti); experiment: Postemergence herbicidal activity; type: in vivo; details: post-emergent, 140 g ai/ha, after 14 days; for pest or weed control at 140 g/ha: Abutilon theophrasti, post-emergence, 336 h, read-out: % Control ABUTH
Procedure, shortened: as §1

[4] = system: lambsquarter (Chenopodium album); experiment: Preemergence herbicidal activity; type: in vivo; details: pre-emergent, 140 g ai/ha, after 20-22 days; for pest or weed control at 140 g/ha: Chenopodium album, pre-emergence, 480 h, read-out: % Control CHEAL
Procedure, shortened: (§2)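 Seeds sown in 70:30 loam (pH about 8.1, about 1.5% organic matter) and sand mix, then sprayed preemergence at 187 L/ha with a track sprayer; controls received solvent blank. Pots kept in greenhouse, about 15 h photoperiod, about 23-29° C. day and 22-28° C. night, top-irrigated.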

[5] = system: redroot pigweed (Amaranthus retroflexus); experiment: Preemergence herbicidal activity; type: in vivo; details: pre-emergent, 140 g ai/ha, after 20-22 days; for pest or weed control at 140 g/ha: Amaranthus retroflexus, pre-emergence, 480 h, read-out: % Control AMARE
Procedure, shortened: as §2

[6] = system: velvetleaf (Abutilon theophrasti); experiment: Preemergence herbicidal activity; type: in vivo; details: pre-emergent, 140 g ai/ha, after 20-22 days; for pest or weed control at 140 g/ha: Abutilon theophrasti, pre-emergence, 480 h, read-out: % Control ABUTH
Procedure, shortened: as §2

Galium aparine = experiment: Postemergence herbicidal activity in cereal crops; type: in vivo; details: post-emergent, after 20-22 days; for pest or weed control at 17.5 g/ha: 17.5 g ai/ha
Protocol: (§3) When required to ensure good germination and healthy plants, a fungicide treatment and/or other chemical or physical treatment was applied. The plants were grown for 7-36 days in a greenhouse with an approximate 14 hour photoperiod which was maintained at about 18° C. during the day and 17° C. during the night. Nutrients and water were added on a regular basis and supplemental lighting was provided with overhead metal halide 1000-Watt lamps as necessary. The plants were employed for testing when they reached the second or third true leaf stage. […] The concentrated stock solutions obtained were diluted with 16 mL of an aqueous mixture containing acetone, water, isopropyl alcohol, DMSO, Agri-dex crop oil concentrate, and Triton® X-77 surfactant in a 64.7:26.0:6.7:2.0:0.7:0.01 v/v ratio to obtain spray solutions containing the highest application rates. […] Compound requirements are based upon a 12 mL application volume at a rate of 187 L/ha. Formulated compounds were applied to the plant material with an overhead Mandel track sprayer equipped with a […] nozzles calibrated to deliver 187 L/ha over an application area of 0.503 square meters at a spray height of 18 inches (43 cm) above average plant canopy height. Control plants were sprayed in the same manner with the blank. The treated plants and control plants were placed in a greenhouse as described above and watered by sub-irrigation to prevent wash-off of the test compounds.

Lamium purpureum = experiment: Postemergence herbicidal activity in cereal crops; type: in vivo; details: post-emergent, after 20-22 days; for pest or weed control at 17.5 g/ha: 17.5 g ai/ha
Protocol: as §3

Papaver rhoeas = experiment: Postemergence herbicidal activity in cereal crops; type: in vivo; details: post-emergent, after 20-22 days; for pest or weed control at 17.5 g/ha: 17.5 g ai/ha
Protocol: as §3

Veronica persica = experiment: Postemergence herbicidal activity in cereal crops; type: in vivo; details: post-emergent, after 20-22 days; for pest or weed control at 17.5 g/ha: 17.5 g ai/ha
Protocol: as §3

barley (Hordeum vulare) = experiment: Postemergence herbicidal activity in cereal crops; type: in vivo; details: crop, post-emergent, after 20-22 days; for pest or weed control at 17.5 g/ha: 17.5 g ai/ha
Protocol: as §3

[7] = system: wheat (Triticum aestivum); experiment: Postemergence herbicidal activity in cereal crops; type: in vivo; details: crop, post-emergent, after 20-22 days; for plant injury at 17.5 g/ha: 17.5 g ai/ha
Protocol: as §3

[8] = Galium aparine, post-emergence, 480 h, 70 g ai/ha, read-out: % Control GALAP
[9] = Lamium purpureum, post-emergence, 480 h, 70 g ai/ha, read-out: % Control LAMPU
[10] = Papaver rhoeas, post-emergence, 480 h, 70 g ai/ha, read-out: % Control PAPRH
[11] = Veronica persica, post-emergence, 480 h, 70 g ai/ha, read-out: % Control VERPE
[12] = Hordeum, post-emergence, 480 h, 70 g ai/ha, read-out: % Control HORVS
[13] = Triticum aestivum, post-emergence, 480 h, 70 g ai/ha, read-out: % Control TRZAS
[14] = Galium aparine, post-emergence, 480 h, read-out: % Control GALAP
[15] = Lamium purpureum, post-emergence, 480 h, read-out: % Control LAMPU
[16] = Papaver rhoeas, post-emergence, 480 h, read-out: % Control PAPRH
[17] = Veronica persica, post-emergence, 480 h, read-out: % Control VERPE
[18] = Hordeum, post-emergence, 480 h, read-out: % Control HORVS
[19] = Triticum aestivum, post-emergence, 480 h, read-out: % Control TRZAS

melting point	Structure (SMILES)	pest or weed control at 140 g/ha [1]	pest or weed control at 140 g/ha [2]	pest or weed control at 140 g/ha [3]	pest or weed control at 70 g/ha (Galium aparine; [8])	pest or weed control at 70 g/ha (Lamium purpureum; [9])	pest or weed control at 70 g/ha (Papaver rhoeas; [10])	pest or weed control at 70 g/ha (Veronica persica; [11])	pest or weed control at 70 g/ha (barley (Hordeum vulare); [12])	plant injury at 70 g/ha [7, 13]	pest or weed control at 17.5 g/ha (Galium aparine; [14])	pest or weed control at 17.5 g/ha (Lamium purpureum; [15])	pest or weed control at 17.5 g/ha (Papaver rhoeas; [16])	pest or weed control at 17.5 g/ha (Veronica persica; [17])	pest or weed control at 17.5 g/ha (barley (Hordeum vulare); [18])	plant injury at 17.5 g/ha [7, 19]	other results
	COC(=O)c1nc(-c2ccc(Cl)c(SC)c2F)cc(N)c1Cl [Compound 1]																% Control CHEAL [1]: 100%; % Control AMARE [2]: 100%; % Control ABUTH [3]: 85%; % Control CHEAL [4]: 90%; % Control AMARE [5]: 100%; % Control ABUTH [6]: 80%; % Control GALAP (Galium aparine; 35 g ai/ha): 85%; % Control LAMPU (Lamium purpureum; 35 g ai/ha): 80%; % Control PAPRH (Papaver rhoeas; 35 g ai/ha): 80%; % Control VERPE (Veronica persica; 35 g ai/ha): 50%; % Control HORVS (barley (Hordeum vulare); 35 g ai/ha): 10%; % Control TRZAS ([7]; 35 g ai/ha): 5%
	COC(=O)c1nc(-c2cc(OC)c(Cl)cc2F)cc(N)c1Cl [Compound 43, 4-Amino-3-chloro-6-(4-chloro-2-fluoro-5-methoxyphenyl)pyridine-2-carboxylic acid methyl ester]	100%	100%	100%	65%	99%	85%	30%	5%	0%							pest or weed control at 140 g/ha [4]: 100%; pest or weed control at 140 g/ha [5]: 100%; pest or weed control at 140 g/ha [6]: 98%
144 to 146 °C	COC(=O)c1nc(-c2ccc(C(F)(F)F)c(OC)c2F)cc(N)c1Cl [Compound 45, 4-Amino-3-chloro-6-(2-fluoro-3-methoxy-4-trifluoromethylphenyl)pyridine-2-carboxylic acid methyl ester]	95%	80%	100%							90%	100%	90%	80%	0%	0%	
	COC(=O)c1nc(-c2c(F)cc(Cl)c(N(C)C)c2F)cc(N)c1Cl [Compound 50, 4-Amino-3-chloro-6-[4-chloro-3-(dimethylamino)-2,6-difluorophenyl]pyridine-2-carboxylic acid, methyl ester]	100%	100%	100%	95%	100%	95%	60%	0%	0%							pest or weed control at 140 g/ha [4]: 100%; pest or weed control at 140 g/ha [5]: 100%; pest or weed control at 140 g/ha [6]: 100%
	COC(=O)c1nc(-c2c(F)cc(F)c(OC)c2F)cc(N)c1Cl [Compound 56, 4-Amino-3-chloro-6-(2,4,6-trifluoro-3-methyoxyphenyl)pyridine-2-carboxylic acid, methyl ester]																% Control CHEAL [1]: 100%; % Control AMARE [2]: 100%; % Control ABUTH [3]: 100%; % Control GALAP (Galium aparine; 70 g ai/ha): 100%; % Control LAMPU (Lamium purpureum; 70 g ai/ha): 99%; % Control PAPRH (Papaver rhoeas; 70 g ai/ha): 100%; % Control VERPE (Veronica persica; 70 g ai/ha): 95%; % Control HORVS (barley (Hordeum vulare); 70 g ai/ha): 10%; % Control TRZAS ([7]; 70 g ai/ha): 0%
	COC(=O)c1nc(-c2ccc(Cl)c(C(F)C(F)(F)F)c2F)cc(N)c1Cl (stereo not drawn) [Compound 65, 4-Amino-3-chloro-6-[4-chloro-2-fluoro-3-(1,2,2,2-tetrafluoroethyl)phenyl)-pyridine-2-carboxylic acid, methyl ester]	90%	100%	95%													pest or weed control at 35 g/ha (Galium aparine; Galium aparine, post-emergence, 480 h, 35 g ai/ha, read-out: % Control GALAP): 85%; pest or weed control at 35 g/ha (Lamium purpureum; Lamium purpureum, post-emergence, 480 h, 35 g ai/ha, read-out: % Control LAMPU): 95%; pest or weed control at 35 g/ha (Papaver rhoeas; Papaver rhoeas, post-emergence, 480 h, 35 g ai/ha, read-out: % Control PAPRH): 90%; pest or weed control at 35 g/ha (Veronica persica; Veronica persica, post-emergence, 480 h, 35 g ai/ha, read-out: % Control VERPE): 40%; pest or weed control at 35 g/ha (barley (Hordeum vulare); Hordeum, post-emergence, 480 h, 35 g ai/ha, read-out: % Control HORVS): 5%; plant injury at 35 g/ha ([7]; Triticum aestivum, post-emergence, 480 h, 35 g ai/ha, read-out: % Control TRZAS): 15%
145 to 147 °C	COC(=O)c1nc(-c2ccc(C(F)F)c(OC)c2F)cc(N)c1Cl [Compound 71, 4-Amino-3-chloro-6-(4-difluoromethyl-2-fluoro-3-methoxyphenyl)pyridine-2-carboxylic acid, methyl ester]	85%	80%	100%							95%	95%	95%	50%	0%	0%	
128 to 130 °C	COC(=O)c1nc(-c2cc(OC)c(F)cc2F)cc(N)c1Cl [Compound 73, 4-Amino-3-chloro-6-(2,4-difluoro-5-methoxyphenyl)pyridine-2-carboxylic acid, methyl ester]	100%	100%	90%	95%	99%	95%	60%	0%	0%							
	CCCCOCCOC(=O)c1nc(-c2ccc(Cl)c(OC)c2F)cc(N)c1Cl [Compound 87, 4-Amino-3-chloro-6-(4-chloro-2-fluoro-3-methoxyphenyl)pyridine-2-carboxylic acid, 2-butoxy-ethyl ester]	100%	100%	100%							100%	100%	100%	50%	0%	0%	

Source: patent publication US20070179060A1, “6-(Poly-substituted aryl)-4-aminopicolinates and their use as herbicides” (priority 2006, published 2007)
